Test results: patent publication US11827624B2, “Covalent immune recruiter compounds for immune cell recognition and associated uses” (McMaster University, priority 2020, dated 2023)

Tests used:
PSMA+HEK cells [1] = assay: Two-color flow cytometry ADCP (CD64) assay with mAb on PSMA+HEK cells; format: cell-based, human
Excerpt: ADCP flow cytometry experiments were run on a BD LSRII Flow Cytometer. The human IgG isotype control used was purchased from Jackson ImmunoResearch (009-000-003). The human IgG1 monoclonal anti-DNP antibody (mAb) was purchased from acrobiosystems (DNP-M2). PSMA expression was confirmed with an anti-PSMA antibody Alexa 647 conjugate (Novus Biologicals, Catalog #FAB4234R). For PSMA competition controls, PMPA was purchased from Sigma (SML1612). Hek-293T (PSMA+/−) cell lines were generously given by Dr. Cyril Barinka (Institute of Biotechnology CAS, Czech Republic). U937 cells were generously given by Dr. John Valliant (McMaster University, Canada). LNCaP cells were generously given by Dr. Karen Mossman (McMaster University, Canada). IFN-γ was purchased from Fischer Scientific (PHC4031). Ultra low IgG FBS was purchased from Fischer Scientific (A3381901). RPMI-1640 was purchased as a powder from Fischer Scientific (31800089) and resuspended. DMEM was purchased as a powder from Fischer Scientific (12800082) and resuspended. […]
For preparation of effector monocytes, 24 hours prior to inducing phagocytosis U937 monocytes were seeded at 500,000 cells/mL and activated with IFN-γ ([…]). After incubation, these cells were then counted and washed twice with serum free assay media (neat RPMI). […] These cells were then counted and washed twice with serum free assay media (neat RPMI). […]

PSMA+HEK cells [2] = assay: CD16α activation assay with pan human IgG as source of sAb; format: cell-based; conditions: pan IgG 230 μM, ~10 nM anti-DNP IgG
Protocol: Preparation of antibody-CIR/ARM stocks were mixed overnight prior to addition to the ADCC plate. In the case of mmAb and mAb, incubation was carried out at 600 nM antibody and 1.2 μM CIR or ARM. In the case of IgG from serum, incubation was completed at 230 μM antibody and 8.7 μM CIR or ARM. In all cases, DMSO was kept close to 1%. After the overnight incubation, a dilution series was completed on the antibody-CIR/ARM stocks in RPMI (1% DMSO). Target cells were seeded at a density of 2.5×10^4 cells per well in opaque 96 well flat-bottom plates (Corning Costar, 3917) in complete media. Sixteen hours after seeding, cells were washed gently with 100 μL of neat RPMI. To the cells, 25 μL of RPMI supplemented with 4% ultra-low IgG FBS was added followed by 25 μL of antibody+/−CIR/ARM conditions described above. After a 30-minute incubation, 25 μL of supplemented RPMI containing 7.5×10^4 Jurkat effector cells expressing human FcgRIlla (CD16) were added to each well. The plates were then incubated for 6 additional hours. 75 μL of Bio-Glo Luciferase Assay Reagent was added to each well, and luminescence was quantified using the SpectraMax i3 plate reader.
Depleted serum IgG is derived from pan serum human IgG passed through DNP coated beads to remove endogenous anti-DNP IgG. […]

O=C(O)CC[C@H](NC(=O)N[C@@H](CCCCNC(=O)NCCOCCOCCOCCOCCOCCOCCOCCOC(=O)n1cnc(CCNC(=O)CNc2ccc([N+](=O)[O-])cc2[N+](=O)[O-])c1)C(=O)O)C(=O)O [CIR 3]
CD64 based target immune recognition (phagocytosis) (PSMA+HEK cells [1]): substantial functional enhancement relative to ARM 11 across all antibody concentrations tested | CD16α activation (PSMA+HEK cells [2]): mediated efficient CD16α activation
